# Test results published in publication PMC12040169 (PLOS Biology, 2025).
# Assay: in vitro
# Conditions: human, hela cells, % viability
row,SMILES,"viability at 28.5 h, 10 µM"
1,Cc1cc(C)n(CC(=O)NC2CCCOc3c(F)cccc32)n1 (stereo not drawn) [CBK305553],106%
2,O=C1CN(c2ccccc2)C(=O)N1c1ccccc1 [CBK116496],98.2%
3,O=C1N(CN2CCN(c3cccc(C(F)(F)F)c3)CC2)c2ccccc2C12OCCCO2 [CBK294461],99%
4,O=C(O)c1cc(NC/C=C/c2ccccc2)ccc1N1CCOCC1 [CBK269806],106%
5,O=C(NCC1CCCO1)c1ccc(NC(=O)C2C3C=CC(C3)C2C(=O)O)cc1 (stereo not drawn) [CBK266317],94.9%
6,COc1cc(C#N)ccc1Oc1ccc([N+](=O)[O-])cc1C(F)(F)F [CBK002544],104%
7,COc1ccc(C(=O)N(Cc2ccco2)Cc2cc3ccccc3nc2O)cc1 [CBK269594],95.9%
8,c1csc(-c2nccnc2OC2CCCCC2)c1 [CBK107060],90.2%
9,CC1=NN(c2ccccc2)C(=O)/C1=C(/C)NNC(=O)c1ccccn1 [CBK261837],91.7%
10,CC(=O)N1C[C@@H](c2cccc(C)c2)[C@@H]2CN(CC3CC3)CC[C@@H]21 [CBK283372],103%
11,COc1cc2c(cc1OC)C(C(=O)O)CC(=O)N2 (stereo not drawn) [CBK218955],87.4%
12,O=C(O)c1cc2ccccc2[nH]1 [CBK015732],100%
13,Cc1nc(NS(=O)(=O)c2c(C)noc2C)sc1C(=O)O [CBK045562],85.7%
14,COc1ccc(OC)c(-c2cc(C(=O)O)c(C)s2)c1 [CBK049922],96.5%
15,C=CCNC(=O)Cn1cccc2cc(-c3ccc(OC)cc3)nc1-2 [CBK285348],92.4%
16,O=C(NCc1cccnc1)c1ncoc1-c1cccc(Cl)c1 [CBK282403],85.4%
17,COc1ccc([C@@]23CC[C@@H](NC(=O)Nc4cccc(C(F)(F)F)c4F)C[C@@H]2CN(C)C3)cc1OC [CBK063195A],98.5%
18,CCCCCn1c(Cc2ccccc2)n[nH]c1=O [CBK013059],98.3%
19,O=C(NCCn1nc(-c2ccco2)ccc1=O)c1cccs1 [CBK283704],92.5%
20,O=C(CCc1nc(-c2ccccc2F)no1)Nc1ccccc1[N+](=O)[O-] [CBK268341],86.9%
21,O=C(O)c1cccc(NS(=O)(=O)c2ccc(Br)cc2C(F)(F)F)c1 [CBK155724],90.9%
22,Cc1ccc(S(=O)(=O)N2CC[C@H](c3nnc(-c4ccccc4)o3)C2)cc1 [CBK289405],111%

row,SMILES,"viability at 28.5 h, 10 µM"
1,O=C(C1=C(O)C(=O)N(CCCn2ccnc2)C1c1ccc(Br)cc1)c1ccc2c(c1)OCCO2 (stereo not drawn) [CBK266081],104%
2,O=C(O)CCC(=O)Nc1cccc(C(=O)Nc2ccc(Br)cc2)c1 [CBK269129],94.6%
3,O=S(=O)(Nc1nnn[nH]1)c1ccc(-c2ccon2)s1 [CBK062391],97.7%
4,COc1cccc(NCc2nnc(SCC(=O)O)n2C2CCCCC2)c1 [CBK297499],95.6%
5,CCC(NC(=O)CCc1cccnc1)c1cn2cccnc2n1 (stereo not drawn) [CBK307247],81.7%
6,Cc1ccc(CS(=O)(=O)NCCn2nc(C)c(C)c2C)cc1 [CBK281383],91.2%
7,CCc1nc2ccc(C(=O)NC3=NC(=O)CS3)cn2c1N(CC)C(C)=O [CBK145839],100%
8,Cc1cc(C)cc(N(C(C)C(=O)Nc2ccc(C(F)(F)F)cc2)S(C)(=O)=O)c1 (stereo not drawn) [CBK268834],89.6%
9,c1coc(-c2nc3n(n2)CCS3)c1 [CBK007565],84.7%
10,COc1cc(Nc2cc(-c3ccc4c(c3)OCO4)ncn2)cc(OC)c1OC [CBK090704],101%
11,O=C(N/N=C/c1c(F)cccc1Cl)c1ccccc1O [CBK261815],113%
12,COc1ccc(OC)c(NC(=O)NCCc2c[nH]cn2)c1 [CBK269956],92.4%
13,CCCn1c(SCc2csc(COc3ccc(Cl)cc3)n2)n[nH]c1=O [CBK295140],82.3%
14,CC(NC(=O)c1cc(C(F)(F)F)n(C)n1)c1cccnc1 (stereo not drawn) [CBK282203],97.6%
15,CCCCCOc1ccc(Nc2ccc(-c3cccc(Cl)c3Cl)cn2)cc1 [CBK036856],111%
16,COCC(=O)N1CCN2C(=O)[C@@H]3C[C@@H](OCc4ccc(F)cc4)CN3C(=O)[C@@H]2C1 [CBK289605],99.1%
17,Oc1ccc(Nc2ccnc3cc(Cl)ccc23)cc1 [CBK012365C],93.5%
18,CC(CCc1ccccc1)NC(=O)C(C)Sc1nnc(-c2cccs2)n1C1CC1 (stereo not drawn) [CBK297131],89.5%
19,Cc1nnc(NC(=O)C2CCN(C(=O)c3cccc(F)c3)CC2)s1 [CBK307588],93.2%
20,COCCCn1c(=O)[nH]c2ncc(-c3ccc(O)cc3)nc21 [CBK064425],93.6%
21,COc1cccc(OC)c1-c1cn2ccnc2c(NC2CC2)n1 [CBK038020],104%
22,NC1=NC(=O)N([C@H]2C[C@@H](O)[C@@H](CO)O2)CN1 [CBK201248],108%

row,SMILES,"viability at 28.5 h, 10 µM"
1,Cc1ccc(CCP(=O)(O)CN2CCOCC2)cn1 [CBK022176],109%
2,Fc1cccc(-c2cncc(NCCc3c[nH]c4ccccc34)n2)c1 [CBK065288],94.7%
3,Cn1ncc2c(=O)[nH]c(N3CCN(c4cc(C#N)ccn4)CC3)nc21 [CBK304924],92.4%
4,CCCN1CCCC(NS(=O)(=O)c2cc(-n3cccn3)ccc2OC)C1 (stereo not drawn) [CBK307426],91.8%
5,COC[C@H]1CCCN1C(=O)CC[C@H]1CNC(=O)[C@@H]2[C@@H](CCN2C2CCOCC2)N1C [CBK289037],90.9%
6,CCCS(=O)(=O)NC1CC(C)(C)Cc2c1cnn2-c1ccc(C)cc1 (stereo not drawn) [CBK307531],86.5%
7,O=C(Cn1nc(N2CCSCC2)ccc1=O)Nc1ccccc1 [CBK307623],97.2%
8,CN(c1ccc(C(=O)Nc2ccc(S(=O)(=O)N3CCCC3)cc2)cc1)S(=O)(=O)c1ccccc1 [CBK266896],102%
9,CCOc1cc(/C=N/NC(=O)c2cncc(Br)c2)c(Br)c(Br)c1O [CBK261386],86.3%
10,Cc1nnsc1C(=O)N1CCN(c2cc(C(F)(F)F)ccn2)CC1 [CBK008467],86.4%
11,Cc1nc(CC(=O)NCc2cccnc2N2CCOCC2)cs1 [CBK304331],98.7%
12,CCn1c(SCc2nc(-c3ccc(Br)cc3)no2)nnc1-c1c[nH]c2ccccc12 [CBK268668],94.3%
13,COc1ccc([C@@]23CC[C@@H](NC(=O)Nc4ccc5ccccc5c4)C[C@@H]2N(C)CC3)cc1OC [CBK034181T],102%
14,COC(=O)c1ccc(CC(C)C)nc1SC1=NCCCN1 [CBK005294C],94.1%
15,CCc1c(C)nc2c(C(=O)NCCOC)cnn2c1C [CBK162143],93.9%
16,CN(C)S(=O)(=O)N1CCN(Cc2ccccc2)CC1 [CBK263638],109%
17,Cc1ccc(C(C)(C)CC(C)NCc2ccc(Cl)cc2)o1 (stereo not drawn) [CBK262873],95.8%
18,Cc1cccc(-c2ccc(CC3(C(N)=O)CCN(C(=O)COc4ccccc4)CC3)cc2)c1 [CBK285797],93.6%
19,Cc1cc(Cc2cnc(NC(=O)c3ccncc3)s2)ccc1Br [CBK298304],106%
20,CC(C)C(=O)N1CC2(CCN(CCc3c[nH]c4ccccc34)CC2)c2ccccc21 [CBK126725],95.6%
21,COc1ccc(/C=N/NS(=O)(=O)c2ccc(C)cc2)cc1CSc1ccccn1 [CBK263036],96%
22,COc1cc(/C=C2/NC(=O)N(c3cccc(Cl)c3)C2=O)ccc1OCC(=O)Nc1ccc(F)cc1 [CBK265691],93%

row,SMILES,"viability at 28.5 h, 10 µM"
1,Cc1ccc(-n2c(SCC(=O)c3ccc4c(c3)OCO4)nnc2-c2ccncc2)cc1 [CBK266132],104%
2,Cc1nc(C)c(CCC(=O)NC2CCCc3ccccc32)c(=O)[nH]1 (stereo not drawn) [CBK295600],98.7%
3,O=[N+]([O-])c1ccc(CN2CCN(c3nccnc3OCc3cccnc3)CC2)cc1 [CBK083135T],106%
4,O=C1CCC(=O)N1CCn1c(=O)n(C(=O)CCC2CCCC2)c2ccccc21 [CBK106495],96.8%
5,COC(=O)Cc1c(O)nn(C)c1Cc1cccc(C(F)(F)F)c1 [CBK006608],99.5%
6,COc1ccc(C2=NN(c3ccc([N+](=O)[O-])cc3)C(=O)/C2=C\c2cccc(OC)c2OC)cc1 [CBK264475],96%
7,Cn1c(CN2CCOCC2)nnc1SCC(=O)Nc1cccc(F)c1 [CBK269629],80.2%
8,Cc1nn(CC(=O)N(C)Cc2cnccn2)c(=O)c2ccccc12 [CBK304356],97.6%
9,CCCOCCN1CCN(C(=O)c2nn3cc(C)cnc3c2Cl)CC1 [CBK306690],95.6%
10,COc1ccc(OC)c(C2CC(c3ccc(NS(C)(=O)=O)cc3)=NN2C(=O)CCC(=O)O)c1 (stereo not drawn) [CBK297781],107%
11,CC(=O)N(Cc1cccnc1)c1nc2cc3c(cc2s1)OCCO3 [CBK287696],99.9%
12,CCNC(=O)NC[C@@H]1C=C(C)[C@H](CC(=O)N2CCOCC2)C[C@H]1C(C)C [CBK289051],102%
13,CC(OC(=O)N1CCN(c2ccccc2)CC1)c1ccccc1 (stereo not drawn) [CBK200243],104%
14,O=[N+]([O-])c1ccccc1S(=O)(=O)N1CCN(C2CCCCCC2)CC1 [CBK264171G],95.4%
15,Cc1cc(Cl)cc(Cl)c1S(=O)(=O)Nc1cccc(C(=O)O)c1 [CBK155682],93%
16,O=C(O)CSc1nnc(-c2ccco2)n1-c1ccccc1 [CBK131685],85.9%
17,CC(C)(C)Oc1nc(=O)[nH]c(=O)[nH]1 [CBK007194],98.3%
18,CC1CN(Cc2ccccc2)CCN1c1cnccn1 (stereo not drawn) [CBK013684],102%
19,O=C(O)CCC1=C2c3ccccc3CCN2C(=O)CC1 [CBK286945],108%

# Same assay, conditions: human, hela cells, % viability, bulk resorufin, single well
row,SMILES,"viability at 28.5 h, 10 µM"
1,CC(C)(C)OC(=O)N1CCC2(CC1)OCc1cc(Br)ccc1O2 [CBK092251],99.4%
2,COc1cc(/C=C2\C(=O)NC(=O)N(c3ccc([N+](=O)[O-])cc3)C2=O)ccc1OCC(=O)O [CBK265418],100%
